Data: publication PMC5048545 (Journal of molecular biology, 2016)

Legend:
[1] = target: T1, carboxysome-associated PII protein (CPII) (Thiomonas intermedia, UniProt D5X329); experiment: crystal structures; format: binding
[2] = target: T1, carboxysome-associated PII protein (CPII)

| Compound | Kd [1] [mM] | crystal structure; EPR titration [2] |
| --- | --- | --- |
| Nc1ncnc2c1ncn2[C@@H]1O[C@H](COP(=O)(O)O)[C@@H](O)[C@H]1O [AMP] | 1.8 |  |
| O=C(O)O [bicarbonate] |  | Bicarbonate molecules bind in nooks formed by Gly-101 and Arg-102, which immediately precede the C-loop α-helix |
